Experimental data from paper PMC9591056, “Inhibitors of ApiAP2 protein DNA binding exhibit multistage activity against Plasmodium parasites” (PLOS Pathogens, 2022).

Tests used:
AP2-I D3 = target: T1, AP2-I D3 (Plasmodium falciparum, UniProt Q8IJW6); assay: competitive EMSA, inhibition of DNA binding; conditions: 300 uM compound; cognate biotinylated dsDNA probe; 10 mM Tris pH 7.5, 50 mM KCl, 6 mM MgCl2
T1 construct: gene PF3D7_1007700

PbAP2-Sp = target: T2, PbAP2-Sp (Plasmodium berghei, UniProt A0A509ASL1); assay: competitive EMSA, inhibition of DNA binding; conditions: 300 uM compound; cognate biotinylated dsDNA probe; 10 mM Tris pH 7.5, 50 mM KCl, 6 mM MgCl2
T2 construct: gene PBANKA_1329800
T2 sequence (A0A509ASL1 175-230 limits assumed): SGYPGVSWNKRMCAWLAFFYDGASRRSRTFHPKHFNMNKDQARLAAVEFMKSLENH

AP2-HS D1 = target: T3, AP2-HS D1 (Plasmodium falciparum, UniProt C0H5G5); assay: competitive EMSA, inhibition of DNA binding; conditions: 300 uM compound; cognate biotinylated dsDNA probe; 10 mM Tris pH 7.5, 50 mM KCl, 6 mM MgCl2
T3 construct: gene PF3D7_1342900
T3 sequence (C0H5G5 2363-2413 limits assumed): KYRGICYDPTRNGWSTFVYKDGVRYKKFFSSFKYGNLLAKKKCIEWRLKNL

PfSIP2 D1 = target: T4, PfSIP2 D1 (Plasmodium falciparum, UniProt C6KSN9); assay: competitive EMSA, inhibition of DNA binding; conditions: 300 uM compound; cognate biotinylated dsDNA probe; 10 mM Tris pH 7.5, 50 mM KCl, 6 mM MgCl2
T4 construct: gene PF3D7_0604100
T4 sequence (C6KSN9 1729-1788 limits assumed): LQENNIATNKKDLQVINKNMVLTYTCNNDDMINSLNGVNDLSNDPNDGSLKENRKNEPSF

AP2-EXP AP2 domain [1] = target: T5, AP2-EXP AP2 domain (Plasmodium falciparum, UniProt Q8IKH2); assay: competitive EMSA, inhibition of DNA binding; conditions: 300 uM compound, biotinylated cognate dsDNA probe, 10 mM Tris pH 7.5, 50 mM KCl, 6 mM MgCl2
T5 construct: gene PF3D7_1466400
T5 sequence (Q8IKH2 63-123): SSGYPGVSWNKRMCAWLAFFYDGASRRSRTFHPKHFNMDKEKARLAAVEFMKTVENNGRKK

AP2-EXP AP2 domain [2] = target: AP2-EXP AP2 domain (Plasmodium falciparum, UniProt Q8IKH2 64-118); assay: EMSA; 300 uM Compound D; EMSA: 10 mM Tris pH 7.5, 50 mM KCl, 1 mM DTT, 6 mM MgCl2, 60 ng/uL poly dIdC, 65 ng BSA; 125 ng AP2-EXP or PbAP2-Sp, 40-150 fmol probe; 15 min protein + compound, then 5 min with DNA; temperature not stated; conditions: protein: recombinant; (expressed as in cited work); label: 5' biotin on forward strand; blunt
AtERF1 AP2/ERF domain = AtERF1 AP2/ERF domain (Arabidopsis thaliana, UniProt O80337 147-205); assay: EMSA; 300 uM Compound A; EMSA: 10 mM Tris pH 7.5, 50 mM KCl, 1 mM DTT, 6 mM MgCl2, 60 ng/uL poly dIdC, 65 ng BSA; 125 ng AP2-EXP or PbAP2-Sp, 40-150 fmol probe; 15 min protein + compound, then 5 min with DNA; temperature not stated; conditions: protein: recombinant; (pGex4t-1); label: 5' biotin on forward strand; blunt
Sequence of AtERF1 AP2/ERF domain (O80337 147-205): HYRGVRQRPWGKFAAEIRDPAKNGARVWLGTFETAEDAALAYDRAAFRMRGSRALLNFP

T1 sequence (Q8IJW6 entry or part of it): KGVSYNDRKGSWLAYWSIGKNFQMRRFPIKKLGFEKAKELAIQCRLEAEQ

Q: For `CCc1ccc(-c2nc3cc(NC(=O)c4ccc([N+](=O)[O-])o4)ccc3o2)cc1` [B, Compound B], which “competitive EMSA, inhibition of DNA binding” value (shortened to “competitive EMSA, inhibition”) (AP2-I D3) is on record?
A: Compounds A, B, C, and I can prevent DNA binding by AP2-I D3

Q: And the “competitive EMSA, inhibition” value (PbAP2-Sp)?
A: Compounds B and C block PbAP2-Sp DNA binding in vitro

Q: What about the “competitive EMSA, inhibition” value (AP2-HS D1) of the same molecule?
A: Compounds B and I prevent DNA binding by AP2-HS D1 (S5B Fig)

Q: What about the “competitive EMSA, inhibition” value (PfSIP2 D1) of the same molecule?
A: Compounds B, C and I prevent DNA binding by PfSIP2 D1 (S5C Fig)

Q: For `Cc1cccc(-c2nc3cc(NC(=O)c4ccc([N+](=O)[O-])o4)ccc3o2)c1` [B-4, Compound B-4], which “competitive EMSA, inhibition” value (AP2-I D3) is on record?
A: prevent DNA binding by AP2-EXP (Fig 2A) and AP2-I D3 (S7A Fig)

Q: What about the “competitive EMSA, inhibition” value (AP2-EXP AP2 domain [1]; also titrated at 25, 50 and 150 uM) of the same molecule?
A: Compounds B-1 and B-4 prevent DNA binding by AP2-EXP (Fig 2A)

Q: For `Cc1ccc(-c2nc3cc(NC(=O)c4ccc([N+](=O)[O-])o4)ccc3o2)cc1Cl` [B-1, Compound B-1], which “competitive EMSA, inhibition” value (AP2-I D3) is on record?
A: prevent DNA binding by AP2-EXP (Fig 2A) and AP2-I D3 (S7A Fig)

Q: And the “competitive EMSA, inhibition” value (AP2-EXP AP2 domain [1])?
A: Compounds B-1 and B-4 prevent DNA binding by AP2-EXP (Fig 2A)

B1: AP2-EXP gel shift probe (dsDNA)
DNA 1: ACTACACACCTAACTATGCATGCATCAATATAGTGGATTA
DNA 2: TAATCCACTATATTGATGCATGCATAGTTAGGTGTGTAGT
Q: Does B1 bind (AP2-EXP AP2 domain [2])?
A: binds

B2: AtERF1 gel shift probe (dsDNA)
DNA 1: TTTAACTTTAATTATGAATATGAGGCGGCGGGTTCGTGATCAAC
DNA 2: GTTGATCACGAACCCGCCGCCTCATATTCATAATTAAAGTTAAA
Q: Does B2 bind (AtERF1 AP2/ERF domain)?
A: binds
